“Also recorded” adds a separate entry of the source. Bridge positions count the residues as written; N and C are the ends. Peptide text beside a SMILES is read from it.
Experiments:
male Sprague-Dawley rats [1] = assay: In vivo relative hypocalcemic potency in rats (Example 10); design: species or system rat
Procedure: The relative hypocalcemic potency of MCT-II and SCT-I was assessed by giving 3 to 4 week-old male Sprague-Dawley rats (Charles River Breeding Laboratories) subcutaneous injections of hormone in 0.9% saline containing 0.1% BSA. In each experiment, 25 rats were divided into 5 groups of 5 rats each and each group given either saline alone or saline with hormone. Blood samples were obtained by cardiac puncture from the ether-anesthetized rats 1 hr after injection. 200 μl of the blood plasma was diluted in 5 ml of 5% trichloroacetic acid-1000 ppm lithium (Chem-Chek Consulting Inc., South Boundbrook, NJ) and centrifuged before determining the calcium concentration by plasma emission spectrometry (Beckman Spectra Span IV™, Beckman Instruments). Calcium standards were also purchased from Chem-Chek Consulting Inc.

[2] = Surface monolayer studies at the air-water interface; format: physicochemical; settings: for Collapse pressure of the monolayer: air-water interface, 0.01M Tris.HCl pH 7.4, 0.1M NaCl
Procedure: For surface monolayer studies, a subphase of 0.01M Tris.HCl, pH 7.4 with 0.1M NaCl was prepared with glass-distilled water. Surfactant contaminants were removed by bubbling air through the solution for 10 min, then aspirating the surface of the buffer. Insoluble monolayers were spread from a 2.8×10^-4 M solution of MCT-I in 0.1 mM HCl. The surface pressure π(dyn/cm) of the MCT-I monomolecular layer was measured as a function of area, A (cm^2), using a Lauda™ film balance (Brinkman Instruments, Norwalk, CT). At the air-water interface, MCT-I and SCT-I form insoluble monolayers when spread from concentrated solutions in 0.01M HCl. The force-area (π-A) curves between 5 and 12 dyn/cm are described by the equation π[A-A.infin. (1-κπ)]=nRT where κ is a constant reflecting the compressibility of the monolayer and A.infin. is the limiting molecular area extrapolated to zero surface pressure. The parameters calculated for the two peptides were very similar, κ=0.016 cm/dyn for MCT-I and 0.02 cm/dyn for SCT-I, while A.infin. =362 Å^2 for MCT-I and A.infin. =322 Å^2 for SCT I. However, the collapse pressure of 24 dyn/cm found for the monolayer of MCT-I was much higher than the value of 14 dyn/cm observed for SCT-I.
Surface monolayer studies were conducted as in Example 4. MCT-II forms stable monolayers at the air-water interface when spread from concentrated solutions in 0.01M HCl. The force-area curve (π-A) between 0 dyn/cm and 21 dyn/cm can be described by the equation π(A-A.infin. (1-κπ))=nRT where A.infin. is the limiting molecular area extrapolated to zero surface pressure and κ is a constant reflecting the compressibility of the monolayer. The parameters calculated using the entire π-A curve indicate that MCT-II forms a compact, relatively rigid structure at the air-water interface. A.infin. was 362±10 Å^2 compared with 434±7 Å^2 for MCT-I and 559±18 Å^2 for SCT-I. Monolayers of SCT-I, MCT-I, and MCT-II were successively less compressible with κ having values of 0.03 cm/dyn for SCT-I, 0.02 cm/dyn for MCT-I, and 0.01 cm/dyn for MCT-II. Collapse of the monolayer occurred at 22 dyn/cm which was slightly lower than the 24 dyn/cm observed for MCT-I and higher than for the SCT-I monolayer which collapses at 12 dyn/cm.

[3] = target: T1, brain receptors (calcitonin receptors, crude rat brain membranes) (Rattus norvegicus, UniProt P32214); settings: tubes pretreated with peptide, 30 min at 4° C.
T1 sequence (P32214 25-516): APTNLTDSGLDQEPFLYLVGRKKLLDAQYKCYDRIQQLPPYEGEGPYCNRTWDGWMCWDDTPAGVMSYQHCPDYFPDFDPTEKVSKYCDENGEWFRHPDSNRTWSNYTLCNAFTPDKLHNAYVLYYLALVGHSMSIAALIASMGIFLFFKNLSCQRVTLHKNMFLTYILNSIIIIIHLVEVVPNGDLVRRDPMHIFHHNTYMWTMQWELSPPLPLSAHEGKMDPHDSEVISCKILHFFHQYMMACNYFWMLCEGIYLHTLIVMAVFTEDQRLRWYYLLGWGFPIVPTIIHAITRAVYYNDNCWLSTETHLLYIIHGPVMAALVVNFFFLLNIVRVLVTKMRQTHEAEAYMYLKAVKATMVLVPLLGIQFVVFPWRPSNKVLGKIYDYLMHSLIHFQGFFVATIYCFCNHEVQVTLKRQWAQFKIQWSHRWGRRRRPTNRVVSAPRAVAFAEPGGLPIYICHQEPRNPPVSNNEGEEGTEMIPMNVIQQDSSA
Procedure: Crude rats brain membranes were prepared as described by Nakamuta et al., supra, using 250-300 gm male Sprague-Dawley rats (Charles River Breeding Laboratories). Membranes were either used immediately or stored at -80° C. for no more than three days. Crude rat kidney membranes used for binding studies and adenylate cyclase assays were prepared as described by Schwartz, K. E., R. C. […] The dissected kidney cortices were first homogenized briefly with a Polytron™ (Brinkman Instruments) at low speed ("5") before complete homogenization with a loose-fitting Wheaton Dounce homogenizer (American Scientific Products, MacGaw Park, IL, pestle "B"). […] All preparations of kidney membranes were carried out at 4° C. and the membranes were used immediately for binding studies or adenylate cyclase assays.
The mixture was aspirated after a 1 hr incubation and these tubes were reused for all experiments, one set for brain membrane binding experiments and one set for kidney membrane binding experiments. […] Incubations were continued for 30 min at 4° C. (brain membranes) or 40 min at 21° C. (kidney membranes), and then stopped by centrifuging the tubes at 13,000 rpm for 5 min on a Beckman Microfuge II™ (Beckman Instruments). […] Radioactivity in each tip was quantitated using a Beckman Gamma 5500™ counter (Beckman Instruments).

male Sprague-Dawley rats [4] = assay: In vivo hypocalcemic rat bioassay (Example 6)
[5] = target: T2, calcitonin receptors (brain particulate fraction) (Rattus norvegicus, UniProt P32214)
T2 sequence (P32214 25-516): T1 sequence (P32214 25-516)
From the text: Fractions from the single symmetrical peak which was eluted with this buffer were combined, adjusted to pH 7.5, and frozen in small aliquots until needed. The specific activity of the radioiodinated peptide was ~160 μCi/μg. […] Each point represents the mean of three triplicate determinations.

[6] = calculated using the entire π-A curve (Example 7)
[7] = π-A curve between 5 and 12 dyn/cm (Example 4)

SMILES	Activity relative to MCT-I (male Sprague-Dawley rats [1]; in all assays used to compare them) [times]	Hypocalcemic potency relative to SCT-I (male Sprague-Dawley rats [1]; subcutaneous, 0.1 to 100 ng/100 g body weight, 1 hr after injection, b99: all assays used to compare them)	Collapse pressure of the monolayer [2] [dyn/cm]	A∞, limiting molecular area extrapolated to zero surface pressure [2, 6] [Å^2]	κ, compressibility constant of the monolayer [2, 6] [cm/dyn]	IC50 for brain receptors, calculated from theoretical curves fitted to the data [3] [nM]	Activity relative to PCT (male Sprague-Dawley rats [4]; hypocalcemic response in rats, b98 covers in vitro and in vivo activity)	In vivo potency relative to SCT-I (fold less potent) (male Sprague-Dawley rats [4]; subcutaneous, plasma calcium 1 hour after injection)	A∞, limiting molecular area extrapolated to zero surface pressure [2, 7] [Å^2]	κ, compressibility constant of the monolayer [2, 7] [cm/dyn]	IC50 [5] [nM]
CC(C)C[C@H](NC(=O)[C@H](CCCCN)NC(=O)[C@H](CCC(N)=O)NC(=O)[C@H](CC(C)C)NC(=O)[C@H](CCC(N)=O)NC(=O)[C@H](CCC(N)=O)NC(=O)[C@H](CC(C)C)NC(=O)[C@H](CC(C)C)NC(=O)[C@@H]1CSSC[C@H](N)C(=O)N[C@@H](CO)C(=O)N[C@@H](CC(N)=O)C(=O)N[C@@H](CC(C)C)C(=O)N[C@@H](CO)C(=O)N[C@@H]([C@@H](C)O)C(=O)N1)C(=O)N[C@@H](CC(C)C)C(=O)N[C@@H](CCC(N)=O)C(=O)N[C@@H](CCCCN)C(=O)N[C@@H](CC(C)C)C(=O)N[C@@H](CCCCN)C(=O)N[C@@H](CCC(N)=O)C(=O)N[C@@H](Cc1ccc(O)cc1)C(=O)N1CCC[C@H]1C(=O)N[C@@H](CCCNC(=N)N)C(=O)N[C@H](C(=O)N[C@@H](CC(N)=O)C(=O)N[C@H](C(=O)NCC(=O)N[C@@H](CO)C(=O)NCC(=O)N[C@H](C(=O)N1CCC[C@H]1C(N)=O)[C@@H](C)O)[C@@H](C)O)[C@@H](C)O [MCT-II] (H-CSNLSTCLLQQLQKLLQKLKQYPRTNTGSGTP-NH2; disulfide 1-7; N-terminus assumed)	10	indistinguishable from that of our preparation of SCT-I; also recorded: as active as SCT-I	22	362±10	0.01	0.6					
CC(C)C[C@@H]1NC(=O)[C@H](CC(N)=O)NC(=O)CNC(=O)[C@@H](N)CSSC[C@@H](C(=O)N[C@@H](CC(C)C)C(=O)N[C@@H](CC(C)C)C(=O)N[C@@H](CCC(N)=O)C(=O)N[C@@H](CCC(N)=O)C(=O)N[C@@H](Cc2c[nH]c3ccccc23)C(=O)N[C@@H](CCC(N)=O)C(=O)N[C@@H](CCCCN)C(=O)N[C@@H](CC(C)C)C(=O)N[C@@H](CC(C)C)C(=O)N[C@@H](CCC(N)=O)C(=O)N[C@@H](CCCCN)C(=O)N[C@@H](CC(C)C)C(=O)N[C@@H](CCCCN)C(=O)N[C@@H](CCC(N)=O)C(=O)N[C@@H](CC(C)C)C(=O)N2CCC[C@H]2C(=O)N[C@@H](CCCNC(=N)N)C(=O)N[C@H](C(=O)N[C@@H](CC(N)=O)C(=O)N[C@H](C(=O)NCC(=O)N[C@@H](CO)C(=O)NCC(=O)N[C@H](C(=O)N2CCC[C@H]2C(N)=O)[C@@H](C)O)[C@@H](C)O)[C@@H](C)O)NC(=O)[C@H]([C@@H](C)O)NC(=O)[C@H](CO)NC1=O [MCT-I] (H-CGNLSTCLLQQWQKLLQKLKQLPRTNTGSGTP-NH2; disulfide 1-7)			24	434±7	0.02		approximately as active as PCT; also recorded: equivalent to that of PCT	about 10 fold	362	0.016	17
